{"source": "patent US5372813A", "about": "(priority 1992, dated 1994)", "key": {"[1]": {"target": "T1, 5-HT (serotonin) reuptake complex (Rattus norvegicus, UniProt P31652)", "T1 construct": "from tissue; host or cells: rat cortical brain homogenates", "T1 sequence (P31652 whole entry, one chain of several)": "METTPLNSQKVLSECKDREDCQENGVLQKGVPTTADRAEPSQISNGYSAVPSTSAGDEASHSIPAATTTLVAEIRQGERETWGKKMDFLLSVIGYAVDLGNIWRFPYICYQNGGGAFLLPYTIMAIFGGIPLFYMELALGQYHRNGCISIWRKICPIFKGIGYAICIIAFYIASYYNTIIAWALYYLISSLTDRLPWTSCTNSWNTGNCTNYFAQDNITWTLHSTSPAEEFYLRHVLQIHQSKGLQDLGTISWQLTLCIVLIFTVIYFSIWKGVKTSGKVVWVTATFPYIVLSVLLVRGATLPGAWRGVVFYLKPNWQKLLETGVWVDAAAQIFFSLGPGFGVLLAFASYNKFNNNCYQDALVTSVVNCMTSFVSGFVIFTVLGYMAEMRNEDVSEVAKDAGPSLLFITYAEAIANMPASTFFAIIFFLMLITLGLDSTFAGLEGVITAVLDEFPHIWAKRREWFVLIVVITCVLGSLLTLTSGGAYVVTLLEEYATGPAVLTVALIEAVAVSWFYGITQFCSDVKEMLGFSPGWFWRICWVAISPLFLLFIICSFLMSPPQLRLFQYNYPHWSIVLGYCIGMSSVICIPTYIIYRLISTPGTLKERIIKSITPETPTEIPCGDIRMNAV", "experiment": "competition with 3H-paroxetine for the 5-HT reuptake complex in rat cortical brain homogenates (Ki)", "format": "binding", "settings": "Ki of analogue relative to Ki of 6-NQP", "description": "A potency ratio was also determined by comparing the Ki of the analogue to the Ki experimentally determined for the unsubstituted 6-Nitroquipazine."}, "[2]": {"target": "T1, 5-HT (serotonin) reuptake complex", "experiment": "competition with 3H-paroxetine for the 5-HT reuptake complex in rat cortical brain homogenates (Ki)", "format": "binding"}, "[3]": {"test_system": "5-HT reuptake complex", "experiment": "in vivo blocking of 5-125I-6-NQP brain binding by co-injected drugs", "design": "species or system rat", "settings": "co-injection, LSD 0.5 mg/kg; GBR-12909 and DMI 2 mg/kg, in words", "excerpt": "A critical test of the in vivo behavior of the radioligand is the ability to block its specific binding."}, "[4]": {"test_system": "5-HT reuptake site", "experiment": "neurotoxin (PCA) pretreatment study, 5-125I-6-NQP binding", "format": "in vivo, rat", "settings": "PCA 10 mg/kg for 2 days", "description": "The in vivo results were consistent with the reduction in Bmax measured by in vitro binding methods and indicated up to a 90% reduction in 5-HT reuptake site densities in lesioned rats."}, "[5]": {"test_system": "depression", "settings": "patients, in words; cited from earlier work"}, "[6]": {"experiment": "in vivo brain uptake, clearance and regional distribution of 5-125I-6-NQP after i.v. injection", "settings": "rat", "description": "Whole body distribution studies were performed in rats in accordance with the method of Carl Mathis, et al described in Nuclear Medicine and Biology 19: 571-588 (1992).\nThe ratios of regional activity concentrations to cerebellar concentrations are plotted in the left panel of FIG. 4. […] Also plotted in the right panel of FIG. 4 is the time course of specific binding (total regional radioactivity cerebellar radioactivity) in a representative tissue."}, "[7]": {"test_system": "serotonin uptake system", "experiment": "competition of known ligands against 5-125I-6-NQP in membrane preparation", "format": "binding, rat", "settings": "versus e.g. sertraline and fluoxetine, in words", "description": "In the second set of experiments, competition experiments were performed with known agonist and antagonists to the serotonin uptake system, post synaptic serotonin receptors, and a receptors of other brain receptor systems. These compounds were incubated against 5-^125 I-6-NQP to determine the concentration needed to displace 5-^125 I-6-NQP from the membrane preparations. The strongest competitors were those specific for the serotonin uptake system, (FIG. 2)."}, "[8]": {"test_system": "5-HT reuptake complex", "experiment": "ex vivo autoradiography of rat brain", "settings": "25 μCi, 2, 6 and 12 h post injection, in words", "description": "Ex vivo autoradiography was performed on rats injected with 25 μCi 5-^125 I-6-NQP and killed at 2, 6 and 12 h post injection."}, "[9]": {"experiment": "metabolite determination in brain and thyroid radioactivity after injection of 5-125I-6-NQP", "format": "in vivo, rat", "description": "The brains of rats which had been injected with 25 μCi of 5-^125 I-6-NQP 6 h earlier were removed, homogenized, and repeatedly extracted with ethyl acetate and added cold 5-I-6-NQP carrier. The ethyl acetate fractions were pooled and evaporated, and the concentrate subject to TLC and HPLC (with fraction collection) analyses to determine metabolites in the brain."}, "[10]": {"target": "serotonin uptake sites (Rattus norvegicus, UniProt P31652)", "sequence (P31652 whole entry)": "as the sequence (P31652 whole entry, one chain of several) above", "experiment": "Scatchard saturation binding of 5-125I-6-NQP to isolated rat brain membranes, control and PCA-treated", "settings": "PCA-treated versus control rats, in vitro, in words"}, "[11]": {"settings": "rat cortical brain homogenates, 3H-paroxetine displacement, read-out: In vitro Inhibition Constants (Ki) for the 5-HT Reuptake Site"}}, "note": "Read-outs that look alike come from different tables or passages of the source.", "data": [{"smiles": "O=[N+]([O-])c1cc(Br)c2nc(N3CCNCC3)ccc2c1", "note": "[8-Br-6-NQP, 8-Bromo-6-nitro-2-piperazinylquinoline]", "values": [{"measurement": "Potency Ratio", "setting": "[1]", "value": 78}, {"measurement": "Ki", "setting": "[2]", "value": "18 ± 3", "unit": "nM"}]}, {"smiles": "CCN(CC)C(=O)[C@@H]1C=C2c3cccc4[nH]cc(c34)C[C@H]2N(C)C1", "note": "[LSD]", "values": [{"measurement": "radioactivity concentrations in brain regions", "setting": "[3]", "value": "little effect on radioactivity concentrations in these regions"}]}, {"smiles": "CC(N)Cc1ccc(Cl)cc1", "note": "(stereo not shown) [PCA, p-chloroamphetamine]", "values": [{"measurement": "specifically bound radioactivity after PCA pretreatment", "setting": "[4]; i.v. 5-125I-6-NQP two weeks later, in words", "value": "regionally selective reduction of specifically bound radioactivity"}, {"measurement": "reduction in 5-HT reuptake site densities in lesioned rats", "setting": "[4]; two weeks before", "value": "≤ 90", "unit": "%"}]}, {"smiles": "O=[N+]([O-])c1cc2ccc(N3CCNCC3)nc2cc1Br", "note": "[7-Br-6-NQP, 7-Bromo-6-nitro-2-piperazinylquinoline]", "values": [{"measurement": "Potency Ratio", "setting": "[1]", "value": 18}, {"measurement": "Ki", "setting": "[2]", "value": "4.1 ± 1.5", "unit": "nM"}]}, {"smiles": "CNCCC(Oc1ccc(C(F)(F)F)cc1)c1ccccc1", "note": "(racemic) [fluoxetine, (±)-N--Methyl-3-Phenyl-3-[(ααα-trifluoro-p-tolyl)oxy]propylamine]", "values": [{"measurement": "anti-depressant efficacy compared with certain tricyclic amine drugs", "setting": "[5]", "value": "equal anti-depressant efficacy"}, {"measurement": "total side effects and dropouts compared with certain tricyclic amine drugs", "setting": "[5]", "value": "fewer total side effects and dropouts"}]}, {"smiles": "O=[N+]([O-])c1ccc2nc(N3CCNCC3)ccc2c1", "note": "[6-NQP, 6-nitro-2-N-piperazinylquinoline, reference compound]", "values": [{"measurement": "Potency Ratio", "setting": "[1]", "value": 1}, {"measurement": "Ki", "setting": "[2]; [11]", "value": "0.23 ± 0.06", "unit": "nM"}]}, {"smiles": "O=[N+]([O-])c1ccc2nc(N3CCNCC3)ccc2c1[125I]", "note": "[5-^125 I-6-NQP, [^125 I]5-Iodo-6-nitro-2-piperazinylquinoline]", "values": [{"measurement": "whole brain accumulation", "setting": "[6]; 25 μCi (11 pmoles) i.v., 5 min post injection", "value": "1.9 % of the injected dose"}, {"measurement": "ratios of regional to cerebellar activity concentrations", "setting": "[6]; i.v., 12 h period post injection, in words", "value": "increase in a nearly linear manner over the 12 h period post injection"}, {"measurement": "brain penetration", "setting": "[6]; i.v., in words", "value": "good brain penetration"}, {"measurement": "clearance of nonspecific binding (cerebellum) versus regions of high 5-HT innervation", "setting": "[6]; i.v., in words", "value": "more rapid than that of radioactivity clearance from brain regions containing high concentrations of 5-HT innervation"}, {"measurement": "loss of activity from the brain", "setting": "[6]; i.v., over 12 h, in words", "value": "slow steady loss of activity from the brain over 12 h"}, {"measurement": "relative potency for the uptake site versus other serotonin uptake ligands", "setting": "[7]", "value": "greater than that observed for other serotonin uptake ligands"}, {"measurement": "binding distribution in rat brain by ex vivo autoradiography", "setting": "[8]", "value": "consistent with the known neuroanatomical distribution of the 5-HT reuptake complex"}, {"measurement": "remaining at 6 h", "setting": "[9]; 25 uCi, rat brain, 25 μCi, 6 h, read-out: unmetabolized radioligand in brain (organic phase radioactivity)", "value": "> 98", "unit": "%"}, {"measurement": "metabolic deiodination in vivo", "setting": "[9]; rat, 6 h, in words", "value": "metabolic deiodination of 5-^125 I-6-NQP occurs in vivo in rats"}, {"measurement": "radioactivity in the thyroid gland", "setting": "[9]; rat, 6 h post injection", "value": "11 % of the injected dose"}, {"measurement": "affinity (Kd) after PCA treatment", "setting": "[10]", "value": "little change in the affinity (Kd)"}, {"measurement": "affinity (Kd) after PCA treatment", "setting": "[10]; listed as INQUIP", "value": "without change in affinity"}, {"measurement": "total binding (Bmax) after PCA treatment", "setting": "[10]; listed as INQUIP", "value": "enormous reduction in binding after PCA treatment"}]}, {"smiles": "O=[N+]([O-])c1ccc2nc(N3CCNCC3)cc(Br)c2c1", "note": "[4-Br-6-NQP]", "values": [{"measurement": "Potency Ratio", "setting": "[1]", "value": 870}, {"measurement": "Ki", "setting": "[2]; [11]", "value": "200 ± 80", "unit": "nM"}]}, {"smiles": "O=[N+]([O-])c1ccc2nc(N3CCNCC3)ccc2c1Br", "note": "[5-Br-6-NQP, 5-Bromo-6-nitro-2-piperazinylquinoline]", "values": [{"measurement": "Potency Ratio", "setting": "[1]", "value": 0.57}, {"measurement": "Ki", "setting": "[2]", "value": "0.13 ± 0.02", "unit": "nM"}]}, {"smiles": "Fc1ccc(C(OCCN2CCN(CCCc3ccccc3)CC2)c2ccc(F)cc2)cc1", "note": "[GBR-12909]", "values": [{"measurement": "radioactivity concentrations in brain regions", "setting": "[3]", "value": "little effect on radioactivity concentrations in these regions"}]}, {"smiles": "O=[N+]([O-])c1ccc2nc(N3CCNCC3)c(Br)cc2c1", "note": "[3-Br-6-NQP, 3-Bromo-6-nitro-2-piperazinylquinoline]", "values": [{"measurement": "Potency Ratio", "setting": "[1]", "value": 42}, {"measurement": "Ki", "setting": "[2]", "value": "9.6 ± 2.6", "unit": "nM"}]}]}
